system: BuGH3MLG; assay: p-nitrophenol release, absorbance […] nm; assay type: biochemical, Bacteroides uniformis; details: sodium phosphate pH 5.7, 37 °C

Km [µM] | Compound
530 ± 120 | O=[N+]([O-])c1ccc(O[C@@H]2O[C@H](CO)[C@@H](O)[C@H](O)[C@H]2O)cc1 [p-Nitrophenyl-β-D-glucopyranoside]
880 ± 160 | O=[N+]([O-])c1ccc(O[C@@H]2O[C@H](CO)[C@@H](O)[C@H](O[C@@H]3O[C@H](CO)[C@@H](O)[C@H](O)[C@H]3O)[C@H]2O)cc1 [p-Nitrophenyl β-D-laminaribioside]
2900 ± 700 | CC(=O)N[C@H]1[C@H](Oc2ccc([N+](=O)[O-])cc2)O[C@H](CO)[C@@H](O)[C@@H]1O [p-nitrophenyl-N-acetyl glucosaminide]
640 ± 90 | O=[N+]([O-])c1ccc(O[C@@H]2O[C@H](CO)[C@@H](O[C@@H]3O[C@H](CO)[C@@H](O)[C@H](O)[C@H]3O)[C@H](O)[C@H]2O)cc1 [p-Nitrophenyl β-D-cellobioside]

system: BuGH3MLG; assay: PAHBAH reducing sugar assay, […] nm; assay type: biochemical, Bacteroides uniformis; details: 30 min hydrolysis

Km [µM] | Compound
7.1 ± 1.2 | OC[C@H]1O[C@@H](O[C@H]2[C@H](O)[C@@H](CO)OC(O)[C@@H]2O)[C@H](O)[C@@H](O)[C@@H]1O (stereo partly shown) [Laminaribiose]
241 ± 16.2 | OC[C@H]1O[C@@H](OC[C@H]2OC(O)[C@H](O)[C@@H](O)[C@@H]2O)[C@H](O)[C@@H](O)[C@@H]1O (stereo partly shown) [Gentiobiose]
41.3 ± 7 | OC[C@H]1O[C@@H](O[C@H]2[C@H](O)[C@@H](O)[C@H](O[C@H]3[C@H](O)[C@@H](CO)OC(O)[C@@H]3O)O[C@@H]2CO)[C@H](O)[C@@H](O)[C@@H]1O (stereo partly drawn) [β-D-cellobiosyl-glucose, β-d-Glc^iii(1→4)β-d-Glc^ii(1→3)-d-Glc^i]
9.9 ± 1.1 | OC[C@H]1O[C@@H](O[C@@H]2[C@@H](O)[C@H](O[C@@H]3[C@@H](O)[C@H](O[C@H]4[C@H](O)[C@@H](CO)OC(O)[C@@H]4O)O[C@H](CO)[C@H]3O)O[C@H](CO)[C@H]2O)[C@H](O)[C@@H](O)[C@@H]1O (stereo partly shown) [Laminaritetrose]
7.5 ± 0.5 | OC[C@H]1O[C@@H](O[C@@H]2[C@@H](O)[C@H](O[C@H]3[C@H](O)[C@@H](CO)OC(O)[C@@H]3O)O[C@H](CO)[C@H]2O)[C@H](O)[C@@H](O)[C@@H]1O (stereo partly shown) [Laminaritriose]
26.1 ± 5.5 | OC[C@H]1O[C@@H](O[C@H]2[C@H](O)[C@@H](O)[C@H](O[C@H]3[C@H](O)[C@@H](O)C(O)O[C@@H]3CO)O[C@@H]2CO)[C@H](O)[C@@H](O)[C@@H]1O (stereo partly shown) [Cellotriose]
28.2 ± 6.2 | OC[C@H]1O[C@@H](O[C@H]2[C@H](O)[C@@H](O)[C@H](O[C@H]3[C@H](O)[C@@H](O)[C@H](O[C@H]4[C@H](O)[C@@H](CO)OC(O)[C@@H]4O)O[C@@H]3CO)O[C@@H]2CO)[C@H](O)[C@@H](O)[C@@H]1O (stereo partly drawn) [G4G4G3G, β-d-Glc^iv(1→4)β-d-Glc^iii(1→4)β-d-Glc^ii(1→3)-d-Glc^i]
7.4 ± 1.24 | OC[C@H]1O[C@@H](O[C@H]2[C@H](O)[C@@H](O)C(O)O[C@@H]2CO)[C@H](O)[C@@H](O)[C@@H]1O (stereo partly shown) [Cellobiose]
56.9 ± 9 | OC[C@H]1O[C@@H](O[C@H]2[C@H](O)[C@@H](O)[C@H](O[C@H]3[C@H](O)[C@@H](O)[C@H](O[C@H]4[C@H](O)[C@@H](O)C(O)O[C@@H]4CO)O[C@@H]3CO)O[C@@H]2CO)[C@H](O)[C@@H](O)[C@@H]1O (stereo partly shown) [Cellotetraose]

From doi:10.1101/2021.06.24.449719v1 (biorxiv, 2021)
